The test system of assay [1] is B16. Nature of the assay: Inhibition of alpha-MSH-induced melanin production in mouse B16 cells at 10 uM after 3 days. It counts as functional. To be noted: B16, 72 h.
For assay [2], the system named is B16. Nature of the assay: Inhibition of alpha-MSH-induced melanin production in mouse B16 cells after 3 days. The assay is classed as functional, cell-based. Particulars: B16, 72 h.

In general, inhibition refers to the relative decrease from the control value, in per cent. A lower inhibition goes with little suppression. The IC50 is the concentration needed to halve the response being measured. Low readings indicate inhibition by little substance, high ones a need for much substance.

Where only a bound is given, the exact number is not on record here.

`C/C(=N\NC(N)=S)c1ccc(C)cc1`: the inhibition at 10 µM in the assay on B16 [1] is > 100%. The IC50 with B16 [2] amounted to 840 nM.

As for `CC/C(=N\NC(N)=S)c1ccc(C)cc1`, the inhibition at 10 µM with B16 [1] was > 100%. The compound further registered an IC50 with B16 [2] of 2600 nM.

As to `CC(C)/C(=N\NC(N)=S)c1ccccc1`, the inhibition at 10 µM in the assay on B16 [1] came to 96%. Further, the IC50 in the assay on B16 [2] worked out at 3700 nM.

As for `CC/C(=N\NC(=S)NC)c1ccc(C)cc1`, the inhibition at 10 µM in the assay with B16 [1] was > 100%. The compound further came in with an IC50 in the assay on B16 [2] of 2000 nM.

With `CCNC(=S)N/N=C(\CC)c1ccc(C)cc1`, the inhibition at 10 µM with B16 [1] is > 100%. In addition, the IC50 in the assay on B16 [2] worked out at 1900 nM.

Regarding `CC/C(=N\NC(=S)Nc1ccccc1)c1ccc(C)cc1`, the inhibition at 10 µM in the assay with B16 [1] is > 100%. The same compound yielded a half-maximal inhibitory concentration (IC50) in the assay on B16 [2] of 790 nM.

`CC(NNC(N)=S)c1ccccc1` (centres undefined) returned an inhibition at 10 µM in the assay on B16 [1] of 36%. Further, the IC50 in the assay with B16 [2] was > 30000 nM.

`Cc1ccc(C(C)NNC(N)=S)cc1` (centres undefined) displayed an inhibition at 10 µM with B16 [1] of 61%. Further, it took 8100 nM to reach half-maximal inhibition with B16 [2] (IC50).

For the compound `CCC(NNC(N)=S)c1ccc(C)cc1` (centres undefined), the inhibition at 10 µM with B16 [1] is > 100%. Besides, 3900 nM corresponded to half-maximal inhibition in the assay on B16 [2] (IC50).

As for `NC(=S)N/N=C1\CCCc2ccccc21`, in the assay with B16 [1], the inhibition at 10 µM is > 100%. In the assay with B16 [2], this compound had an IC50 of 2300 nM.

For `C/C(=N\NC(N)=S)c1cccs1`, testing at 10 µM with B16 [1] gave an inhibition of 82%. The compound also yielded an IC50 in the assay with B16 [2] of 6100 nM.

Consider `COc1ccc(/C(C)=N/NC(N)=S)cc1`, for which, in the assay on B16 [1], the inhibition at 10 µM is > 100%. In the assay with B16 [2], this compound yielded an IC50 of 2700 nM.

For `CC/C(=N\N=C(\N)S)c1ccc(Br)cc1`, the inhibition at 10 µM in the assay with B16 [1] is > 100%. The half-maximal inhibitory concentration (IC50) with B16 [2] came out at 2000 nM.

For the compound `CC/C(=N\N=C(\N)S)c1ccc(OC)cc1`, the inhibition at 10 µM in the assay on B16 [1] is > 100%. The IC50 in the assay on B16 [2] was found to be 4000 nM.

As to `CC/C(=N\N=C(\N)S)c1ccc(Cl)cc1`, the inhibition at 10 µM in the assay with B16 [1] is > 100%. The compound also displayed a 50% inhibitory concentration (IC50) in the assay with B16 [2] of 2900 nM.

As for `NC(=S)NN=C(c1ccccc1)c1ccccc1` [BENZOPHENONE-THIOSEMICARBAZONE], the inhibition at 10 µM in the assay with B16 [1] was found to be 97%. In addition, in the assay on B16 [2], the 50% inhibitory concentration (IC50) amounted to 4900 nM.

With `C/C(=N\N=C(/N)S)c1ccccc1` [PHENYL(METHYL)THIOSEMICARBAZONE], the inhibition at 10 µM in the assay with B16 [1] is > 100%. Also, in the assay on B16 [2], the IC50 was found to be 2300 nM.
